Measurements taken from ChEMBL document CHEMBL3044612, “Design, synthesis and biological evaluation of some novel 3-cinnamoyl-4-hydroxy-2H-chromen-2-ones as antimalarial agents” (Med Chem Res, 2012).
In brackets after ≈: the same amount, converted by molar mass.

Assays:
[1] = Selectivity index, ratio of IC50 for human K562 cells to IC80 for chloroquine-sensitive Plasmodium falciparum 3D7; assay type: toxicity, cell-based; conditions: read-out: Selectivity Index
[2] = Selectivity index, ratio of IC50 for human K562 cells to IC50 for chloroquine-sensitive Plasmodium falciparum 3D7; assay type: toxicity, cell-based; conditions: read-out: Ratio IC50
[3] = system: Plasmodium falciparum; test: Antimalarial activity against chloroquine-resistant Plasmodium falciparum W2 by in vitro cell culture method; assay type: functional, organism-based
[4] = Selectivity index, ratio of IC50 for human K562 cells to IC50 for chloroquine-resistant Plasmodium falciparum W2; assay type: toxicity, cell-based; conditions: read-out: Ratio IC50
[5] = system: Plasmodium falciparum; test: Antimalarial activity against chloroquine-sensitive Plasmodium falciparum 3D7 by in vitro cell culture method; assay type: functional, organism-based
[6] = system: K562; test: Cytotoxicity against Homo sapiens (human) K562 cells by Sulphorhodamine B assay; assay type: cell-based
[7] = system: Plasmodium falciparum; test: Antimalarial activity against Plasmodium falciparum by [3H]-hypoxanthine incorporation assay; assay type: functional, organism-based

| SMILES | selectivity ratio [1] | selectivity ratio [2] | IC50 [3] [µg/mL] | selectivity ratio [4] | IC50 [5] [µg/mL] | IC80 [5] [µg/mL] | IC50 [6] [µg/mL] | IC50 [7] [µM] |
| --- | --- | --- | --- | --- | --- | --- | --- | --- |
| O=C(/C=C/c1ccc([N+](=O)[O-])cc1)c1c(O)c2ccccc2oc1=O | 22 | 49.7 | 4 (≈ 11.9 µM) | 38.5 | 3.1 (≈ 9.19 µM) | 7 (≈ 20.8 µM) | 154 (≈ 457 µM) |  |
| COc1cc(/C=C/C(=O)c2c(O)c3ccccc3oc2=O)cc(OC)c1OC |  |  |  |  | > 50 |  | 103 (≈ 270 µM) |  |
| CN(C)c1ccc(/C=C/C(=O)c2c(O)c3ccccc3oc2=O)cc1 | 7.08 | 9.1 | 68.2 (≈ 203 µM) | 2.29 | 17.2 (≈ 51.3 µM) | 22.1 (≈ 65.9 µM) | 156 (≈ 467 µM) |  |
| O=C(/C=C/c1ccccc1)c1c(O)c2ccccc2oc1=O | 1.76 | 4.49 | 11 (≈ 37.6 µM) | 9.02 | 22.1 (≈ 75.6 µM) | 56.3 (≈ 193 µM) | 99.2 (≈ 339 µM) |  |
| COc1ccc(/C=C/C(=O)c2c(O)c3ccccc3oc2=O)cc1 |  |  | 35.8 (≈ 111 µM) |  | 7.2 (≈ 22.3 µM) | 6.2 (≈ 19.2 µM) |  |  |
| Cc1ccc(/C=C/C(=O)c2c(O)c3ccccc3oc2=O)cc1 |  |  | 5.1 (≈ 16.6 µM) |  | 6.1 (≈ 19.9 µM) | 15 (≈ 49 µM) |  |  |
| COc1ccc(/C=C/C(=O)c2c(O)c3ccccc3oc2=O)cc1OC | 4.73 | 11.5 | 22 (≈ 62.4 µM) | 3.25 | 6.2 (≈ 17.6 µM) | 15.1 (≈ 42.9 µM) | 71.4 (≈ 203 µM) |  |
| COc1ccc(/C=C/C(=O)c2c(O)c3ccccc3oc2=O)c(OC)c1OC | 2.3 | 5.48 | 56.1 (≈ 147 µM) | 0.83 | 8.5 (≈ 22.2 µM) | 20.3 (≈ 53.1 µM) | 46.6 (≈ 122 µM) |  |
| O=C(/C=C/c1ccco1)c1c(O)c2ccccc2oc1=O |  |  |  |  | > 50 |  |  |  |
| O=C(/C=C/c1ccccc1Cl)c1c(O)c2ccccc2oc1=O |  |  |  |  | > 50 |  | 124 (≈ 378 µM) |  |
| O=C(/C=C/c1cccc(Cl)c1)c1c(O)c2ccccc2oc1=O |  |  | 6.2 (≈ 19 µM) |  | 4.2 (≈ 12.9 µM) | 9 (≈ 27.5 µM) |  |  |
| O=C(/C=C/c1ccc(Cl)cc1)c1c(O)c2ccccc2oc1=O | 2.26 | 6.29 | 6.5 (≈ 19.9 µM) | 4.94 | 5.1 (≈ 15.6 µM) | 14.2 (≈ 43.5 µM) | 32.1 (≈ 98.2 µM) |  |
| O=C(/C=C/c1ccc(Cl)cc1Cl)c1c(O)c2ccccc2oc1=O |  |  |  |  | > 50 |  | 149 (≈ 413 µM) |  |
| O=C(/C=C/c1cccc([N+](=O)[O-])c1)c1c(O)c2ccccc2oc1=O | 6.02 | 9.72 | 54.1 (≈ 160 µM) | 2.8 | 15.6 (≈ 46.3 µM) | 25.2 (≈ 74.7 µM) | 152 (≈ 450 µM) |  |
| COc1cc(/C=C/C(=O)c2c(O)c3ccccc3oc2=O)ccc1O |  |  | 61.3 (≈ 181 µM) |  | 11.2 (≈ 33.1 µM) | 27.2 (≈ 80.4 µM) |  |  |
| CCN(CC)CCCC(C)Nc1ccnc2cc(Cl)ccc12 (stereo unspecified) [CHLOROQUINE] |  |  |  |  |  | 0.0401 (≈ 0.125 µM) | 43.8 (≈ 137 µM) |  |
| O=c1ccc2ccc(O)c(O)c2o1 [DAPHNETIN] |  |  |  |  |  |  |  | 25 |
